ChEMBL document CHEMBL4680101, “Discovery and Optimization of Allosteric Inhibitors of Mutant Isocitrate Dehydrogenase 1 (R132H IDH1) Displaying Activity in Human Acute Myeloid Leukemia Cells” (J Med Chem, 2016)

Each molecule was assayed against Isocitrate dehydrogenase [NADP] cytoplasmic (Homo sapiens, UniProt O75874, R132H) (assay: Inhibition of IDH1 R132H mutant (unknown origin) using alpha-ketoglutarate and NADPH incubated for 60 mins by fluorescence based assay).
Sequence of Isocitrate dehydrogenase [NADP] cytoplasmic (O75874 2-414 R132H limits assumed): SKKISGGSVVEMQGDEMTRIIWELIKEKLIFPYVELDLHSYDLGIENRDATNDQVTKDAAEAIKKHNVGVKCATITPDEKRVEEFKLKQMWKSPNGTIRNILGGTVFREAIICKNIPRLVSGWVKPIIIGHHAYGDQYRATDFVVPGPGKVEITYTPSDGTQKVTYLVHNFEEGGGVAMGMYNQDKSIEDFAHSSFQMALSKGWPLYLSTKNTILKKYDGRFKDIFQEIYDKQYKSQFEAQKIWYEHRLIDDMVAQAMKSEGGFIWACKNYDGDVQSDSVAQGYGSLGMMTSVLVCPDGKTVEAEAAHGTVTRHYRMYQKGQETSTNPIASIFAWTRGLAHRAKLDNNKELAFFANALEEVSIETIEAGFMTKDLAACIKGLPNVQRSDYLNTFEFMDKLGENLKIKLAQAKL

| Structure (SMILES) | IC50 |
| --- | --- |
| CCCCOc1nc(N2CCC[C@@H](CC(=O)O)C2)ccc1C(=O)NC1CCCCC1 | 12 µM |
| COc1cccc(COc2nc(N3CCC[C@@H](CC(=O)O)C3)ccc2C(=O)NC2CCCCC2)c1 | 12 µM |
| O=C(O)C[C@@H]1CCCN(c2ccc(C(=O)NC3CCCCC3)c(OC3CCOCC3)n2)C1 | > 50 µM |
| O=C(O)C[C@@H]1CCCN(c2ccc(C(=O)NC3CCCCC3)c(OCCc3ccccc3)n2)C1 | 43 µM |
| CC(C)=CCOc1nc(N2CCC[C@@H](CC(=O)O)C2)ccc1C(=O)NC1CCCCC1 | 14 µM |
| O=C(O)C[C@@H]1CCCN(c2ccc(C(=O)NC3CCCCC3)c(OCC3CC3)n2)C1 | 30 µM |
| O=C(O)C[C@@H]1CCCN(c2ccc(C(=O)NC3CCCCC3)c(OC3CCCCC3)n2)C1 | 12 µM |
| O=C(O)C[C@@H]1CCCN(c2ccc(C(=O)NC3CCCCC3)c(OCC3CCC3)n2)C1 | 20 µM |
| O=C(O)C[C@@H]1CCCN(c2ccc(C(=O)NC3CCCCC3)c(SCc3ccccc3F)n2)C1 | 21 µM |
| CC(C)CCOc1nc(Nc2nc(CC(=O)O)cs2)ccc1C(=O)NC1C2CC3CC1CC(O)(C3)C2 (configuration not stated) | > 50 µM |
| Cc1ccc(COc2nc(N3CCC[C@@H](CC(=O)O)C3)ccc2C(=O)NC2CCCCC2)cc1 | > 50 µM |
| O=C(O)C[C@@H]1CCCN(c2ccc(C(=O)NC3CCCCC3)c(OCc3cccc(F)c3)n2)C1 | 10 µM |
| O=C(O)C[C@@H]1CCCN(c2ccc(C(=O)NC3CCCCC3)c(NC3CCCC3)n2)C1 | > 50 µM |
| O=C(O)C[C@@H]1CCCN(c2ccc(C(=O)NC3CCCCC3)c(OC3CCC3)n2)C1 | > 50 µM |
| CC(C)CCOc1nc(N2C[C@@H]3[C@H](C2)[C@H]3C(=O)O)ccc1NC(=O)C1CCCCC1 | > 50 µM |
| CC(C)CCNc1nc(N2CCC[C@@H](CC(=O)O)C2)ccc1C(=O)NC1CCCCC1 | > 50 µM |
| COCCOc1nc(N2CCC[C@@H](CC(=O)O)C2)ccc1C(=O)NC1CCCCC1 | > 50 µM |
| C[C@H](Oc1nc(N2CCC[C@@H](CC(=O)O)C2)ccc1C(=O)NC1CCCCC1)c1ccccc1 | 11 µM |
| CN(C)CCOc1nc(N2CCC[C@@H](CC(=O)O)C2)ccc1C(=O)NC1CCCCC1 | > 50 µM |
| COc1ccc(COc2nc(N3CCC[C@@H](CC(=O)O)C3)ccc2C(=O)NC2CCCCC2)cc1 | > 50 µM |
| O=C(O)C[C@@H]1CCCN(c2ccc(C(=O)NC3CCCCC3)c(SCc3ccccc3)n2)C1 | 39 µM |
| CC(C)CC(C)Oc1nc(N2CCC[C@@H](CC(=O)O)C2)ccc1C(=O)NC1CCCCC1 (some centres not stated) | 12 µM |
| CC(C)CCOc1nc(Nc2cccc(C(=O)O)c2)ccc1C(=O)NC1C2CC3CC1CC(O)(C3)C2 (configuration not stated) | 11 µM |
| CC(C)CCOc1nc(N2C[C@@H]3[C@H](C2)[C@H]3C(=O)O)ccc1C(=O)N(C)C1CCCCC1 | 17 µM |
| CCC(C)Oc1nc(N2CCC[C@@H](CC(=O)O)C2)ccc1C(=O)NC1CCCCC1 (some centres not stated) | > 50 µM |
| CCCC(C)Oc1nc(N2CCC[C@@H](CC(=O)O)C2)ccc1C(=O)NC1CCCCC1 (some centres not stated) | 12 µM |
| CC(C)CCOc1nc(N2C[C@@H]3[C@H](C2)[C@H]3C(=O)O)ccc1NC(=O)NC1CCCCC1 | > 50 µM |
| COc1ccccc1COc1nc(N2CCC[C@@H](CC(=O)O)C2)ccc1C(=O)NC1CCCCC1 | 13 µM |

Molecules with a lower IC50, results first:

| IC50 | Structure (SMILES) |
| --- | --- |
| 9.4 µM | CC(C)CCOc1nc(N2C[C@@H]3[C@H](C2)[C@H]3C(=O)O)ccc1C(=O)NCc1ccccc1 |
| 8.8 µM | O=C(O)C[C@@H]1CCCN(c2ccc(C(=O)NC3CCCCC3)c(OCc3ccc(F)cc3)n2)C1 |
| 8.6 µM | CC(C)CCOc1nc(N2C[C@@H]3[C@H](C2)[C@H]3C(=O)O)ccc1NS(=O)(=O)C1CCCCC1 |
| 8.6 µM | O=C(O)C[C@@H]1CCCN(c2ccc(C(=O)NC3CCCCC3)c(OCc3ccccc3)n2)C1 |
| 8 µM | O=C(O)C[C@@H]1CCCN(c2ccc(C(=O)NC3CCCCC3)c(OCCC3CC3)n2)C1 |
| 7.7 µM | O=C(O)C[C@@H]1CCCN(c2ccc(C(=O)NC3CCCCC3)c(OCc3ccc(Cl)cc3)n2)C1 |
| 7.6 µM | CC(C)(C)CCOc1nc(N2CCC[C@@H](CC(=O)O)C2)ccc1C(=O)NC1CCCCC1 |
| 7.2 µM | CC1(C)CC(Oc2nc(N3CCC[C@@H](CC(=O)O)C3)ccc2C(=O)NC2CCCCC2)C1 |
| 7 µM | O=C(O)C[C@@H]1CCCN(c2ccc(C(=O)NC3CCCCC3)c(OCc3ccccc3Cl)n2)C1 |
| 6.6 µM | CC(C)CCOc1nc(N2C[C@@H]3[C@H](C2)[C@H]3C(=O)O)ccc1C(=O)NCc1ccc(O)cc1 |
| 6.5 µM | CC(C)CCOc1nc(N2C[C@@H]3[C@H](C2)[C@H]3C(=O)O)ccc1C(=O)NCc1cccc(Cl)c1 |
| 6.4 µM | CC(C)CCOc1nc(N2CCC[C@@H](CC(=O)O)C2)ccc1C(=O)NC1CCCCC1 |
| 6.3 µM | CC(C)CCOc1nc(N2C[C@@H]3[C@H](C2)[C@H]3C(=O)O)ccc1C(=O)NCc1cccc(O)c1 |
| 6.2 µM | CC(C)CCOc1nc(N2C[C@@H]3[C@H](C2)[C@H]3C(=O)O)ccc1C(=O)NCc1ccncc1 |
| 5.9 µM | C[C@@H](Oc1nc(N2CCC[C@@H](CC(=O)O)C2)ccc1C(=O)NC1CCCCC1)c1ccccc1 |
| 5.8 µM | Cc1ccccc1[C@@H](C)Oc1nc(N2CCC[C@@H](CC(=O)O)C2)ccc1C(=O)NC1CCCCC1 |
| 5.6 µM | CC(C)CCOc1nc(N2C[C@@H]3[C@H](C2)[C@H]3C(=O)O)ccc1C(=O)N[C@@H](CO)c1ccccc1 |

| IC50 | Structure (SMILES) |
| --- | --- |
| 5.6 µM | CC(C)CCOc1nc(N2C[C@@H]3[C@H](C2)[C@H]3C(=O)O)ccc1C(=O)Nc1ccc(CO)cc1 |
| 5.6 µM | CC(C)CCOc1nc(N2C[C@@H]3[C@H](C2)[C@H]3C(=O)O)ccc1C(=O)NCc1cccnc1 |
| 5.4 µM | CC(C)CCOc1nc(N2C[C@@H]3[C@H](C2)[C@H]3C(=O)O)ccc1C(=O)Nc1cccc(NS(C)(=O)=O)c1 |
| 5 µM | CC(C)CCOc1nc(N2C[C@@H]3[C@H](C2)[C@H]3C(=O)O)ccc1C(=O)Nc1ccc(O)cc1 |
| 4.5 µM | Cc1ccccc1COc1nc(N2C[C@@H]3[C@H](C2)[C@H]3C(=O)O)ccc1C(=O)NC1C2CC3CC1CC(O)(C3)C2 (some centres not stated) |
| 4.5 µM | Cc1ccccc1COc1nc(N2CCC[C@@H](CC(=O)O)C2)ccc1C(=O)NC1CCCCC1 |
| 3.9 µM | CC(C)CCOc1nc(N2C[C@@H]3[C@H](C2)[C@H]3C(=O)O)ccc1C(=O)NCCc1ccccc1 |
| 3.4 µM | CC(C)CCOc1nc(N2CCC(C(=O)O)CC2)ccc1C(=O)NC1C2CC3CC1CC(O)(C3)C2 (configuration not stated) |
| 3.2 µM | O=C(NC1C2CC3CC1CC(O)(C3)C2)c1ccc(N2C[C@@H]3[C@H](C2)[C@H]3C(=O)O)nc1OCc1ccccc1Cl (some centres not stated) |
| 3.2 µM | CC(C)CCOc1nc(N2C[C@@H]3[C@H](C2)[C@H]3C(=O)O)ccc1C(=O)Nc1cccc(CO)c1 |
| 3 µM | CC(C)CCOc1nc(-c2ccc(C(=O)O)cc2)ccc1C(=O)NC1C2CC3CC1CC(O)(C3)C2 (configuration not stated) |
| 2.9 µM | CC(C)CCOc1nc(N2C[C@@H]3[C@H](C2)[C@H]3C(=O)O)ccc1C(=O)Nc1cccc(O)c1 |
| 2.3 µM | O=C(O)C[C@@H]1CCCN(c2ccc(C(=O)NC3C4CC5CC3CC(O)(C5)C4)c(OCc3ccccc3Cl)n2)C1 (some centres not stated) |
| 1.2 µM | CC(C)CCOc1nc(N2CC[C@H](CC(=O)O)C2)ccc1C(=O)NC1C2CC3CC1CC(O)(C3)C2 (some centres not stated) |
| 0.81 µM | CC(C)CCOc1nc(Nc2csc(C(=O)O)n2)ccc1C(=O)NC1C2CC3CC1CC(O)(C3)C2 (configuration not stated) |
| 0.69 µM | Cc1ccccc1COc1nc(N2CCC[C@@H](CC(=O)O)C2)ccc1C(=O)NC1C2CC3CC1CC(O)(C3)C2 (some centres not stated) |
| 0.27 µM | COC12CC3CC(C1)C(NC(=O)c1ccc(N4C[C@@H]5[C@H](C4)[C@H]5C(=O)O)nc1OCCC(C)C)C(C3)C2 (some centres not stated) |
